ChEMBL document CHEMBL5696443 (Clin Cancer Res, 2016)
The source made the active and inactive calls. No cut-off for these calls is given here.

What was measured:
[1] = target: Tyrosine-protein kinase ABL1 (Homo sapiens, UniProt P00519, Q252H); assay: Inhibition of human ABL1 Q252H mutant using EAIYAAPFAKKK as substrate in presence of [gamma33P]-ATP by HotSpot assay
[2] = target: CDK6/cyclin D3 (Homo sapiens) (UniProt P30281+Q00534); assay: Inhibition of human CDK6/CyclinD3 at 1 uM using RB protein as substrate in presence of [gamma33P]-ATP by HotSpot assay relative to control; format: protein-complex assay
[3] = system: KARPAS-299; conditions: time 72 hrs
[4] = target: Tyrosine-protein kinase CSK (Homo sapiens, UniProt P41240); assay: Inhibition of human CSK using poly (Glu, Tyr)4:1 as substrate in presence of [gamma33P]-ATP by HotSpot assay
[5] = target: Ribosomal protein S6 kinase alpha-5 (Homo sapiens) (UniProt O75582); assay: Inhibition of human RPS6KA5 at 1 uM using GRPRTSSFAEG as substrate in presence of [gamma33P]-ATP by HotSpot assay relative to control
[6] = target: Serine/threonine-protein kinase SIK2 (Homo sapiens, UniProt Q9H0K1); assay: Inhibition of human SIK2 using AMARAASAAALARRR as substrate in presence of [gamma33P]-ATP by HotSpot assay
[7] = target: Homeodomain-interacting protein kinase 3 (Homo sapiens) (UniProt Q9H422); assay: Inhibition of human HIPK3 at 1 uM using MBP as substrate in presence of [gamma33P]-ATP by HotSpot assay relative to control
[8] = target: Megakaryocyte-associated tyrosine-protein kinase (Homo sapiens) (UniProt P42679); assay: Inhibition of human MATK at 1 uM using poly (Glu, Tyr)4:1 as substrate in presence of [gamma33P]-ATP by HotSpot assay relative to control
[9] = target: Ribosomal protein S6 kinase beta-1 (Homo sapiens) (UniProt P23443); assay: Inhibition of human P70S6K at 1 uM using KKRNRTLTK as substrate in presence of [gamma33P]-ATP by HotSpot assay relative to control
[10] = target: Serine/threonine-protein kinase PAK 1 (Homo sapiens) (UniProt Q13153); assay: Inhibition of human PAK1 at 1 uM using RRRLSFAEPG as substrate in presence of [gamma33P]-ATP by HotSpot assay relative to control
[11] = target: Serine/threonine-protein kinase mTOR (Homo sapiens) (UniProt P42345); assay: Inhibition of human MTOR at 1 uM using 4EBP1 as substrate in presence of [gamma33P]-ATP by HotSpot assay relative to control
[12] = target: MAP kinase-activated protein kinase 5 (Homo sapiens) (UniProt Q8IW41); assay: Inhibition of human MAPKAPK5 at 1 uM using KKLNRTLSVA as substrate in presence of [gamma33P]-ATP by HotSpot assay relative to control
[13] = target: Glycogen synthase kinase-3 alpha (Homo sapiens) (UniProt P49840); assay: Inhibition of human GSK3alpha at 1 uM using YRRAAVPPSPSLSRHSSPHQ(pS)EDEEE as substrate in presence of [gamma33P]-ATP by HotSpot assay relative to control
[14] = system: NCI-H23; conditions: time 72 hrs
[15] = system: EML4-ALK (Homo sapiens), Q9UM73+Q9HC35 [F1174V]; conditions: BaF3, time 3-5 weeks
[16] = target: Calcium/calmodulin-dependent protein kinase kinase 1 (Homo sapiens) (UniProt Q8N5S9); assay: Inhibition of human CAMKK1 at 1 uM using MBP as substrate in presence of [gamma33P]-ATP by HotSpot assay relative to control
[17] = system: EML4-ALK (Homo sapiens), Q9UM73+Q9HC35 [V1180L]; conditions: BaF3, dose 500.0 nmol/L, time 3-5 weeks
[18] = system: Platelet-derived growth factor receptor alpha (Homo sapiens), P16234 [V561D]; assay: Inhibition of human PDGFRalpha V561D mutant at 1 uM using poly (Glu, Tyr)4:1 as substrate in presence of [gamma33P]-ATP by HotSpot assay relative to control
[19] = target: CDK3/Cyclin E (Homo sapiens) (UniProt P24864+Q00526); assay: Inhibition of human CDK3/CyclinE at 1 uM using RB protein as substrate in presence of [gamma33P]-ATP by HotSpot assay relative to control; format: protein-complex assay
[20] = target: Ephrin type-B receptor 4 (Homo sapiens) (UniProt P54760); assay: Inhibition of human EPHB4 at 1 uM using poly (Glu, Tyr)4:1 as substrate in presence of [gamma33P]-ATP by HotSpot assay relative to control
[21] = target: Mitogen-activated protein kinase kinase kinase 5 (Homo sapiens) (UniProt Q99683); assay: Inhibition of human MAP3K5 at 1 uM using MBP as substrate in presence of [gamma33P]-ATP by HotSpot assay relative to control
[22] = target: Tyrosine-protein kinase Fyn (Homo sapiens, UniProt P06241); assay: Inhibition of human FYN using poly (Glu, Tyr)4:1 as substrate in presence of [gamma33P]-ATP by HotSpot assay
[23] = target: Ephrin type-B receptor 3 (Homo sapiens) (UniProt P54753); assay: Inhibition of human EPHB3 at 1 uM using poly (Glu, Tyr)4:1 as substrate in presence of [gamma33P]-ATP by HotSpot assay relative to control
[24] = target: Mitogen-activated protein kinase 14 (Homo sapiens) (UniProt Q16539); assay: Inhibition of human P38alpha T106M mutant at 1 uM using poly (Glu, Tyr)4:1 as substrate in presence of [gamma33P]-ATP by HotSpot assay relative to control
[25] = target: BDNF/NT-3 growth factors receptor (Homo sapiens, UniProt Q16620); assay: Inhibition of human NTRK2 using poly (Glu, Tyr)4:1 as substrate in presence of [gamma33P]-ATP by HotSpot assay
[26] = target: Serine/threonine-protein kinase Sgk2 (Homo sapiens) (UniProt Q9HBY8); assay: Inhibition of human SGK2 at 1 uM using KGSGSGRPRTSSFAEG as substrate in presence of [gamma33P]-ATP by HotSpot assay relative to control
[27] = target: Serine/threonine-protein kinase PLK3 (Homo sapiens) (UniProt Q9H4B4); assay: Inhibition of human PLK3 at 1 uM using casein as substrate in presence of [gamma33P]-ATP by HotSpot assay relative to control
[28] = target: Tyrosine-protein kinase Fer (Homo sapiens, UniProt P16591); assay: Inhibition of human FER using poly (Glu, Tyr)4:1 as substrate in presence of [gamma33P]-ATP by HotSpot assay

Chain of Tyrosine-protein kinase Fyn (P06241 whole entry): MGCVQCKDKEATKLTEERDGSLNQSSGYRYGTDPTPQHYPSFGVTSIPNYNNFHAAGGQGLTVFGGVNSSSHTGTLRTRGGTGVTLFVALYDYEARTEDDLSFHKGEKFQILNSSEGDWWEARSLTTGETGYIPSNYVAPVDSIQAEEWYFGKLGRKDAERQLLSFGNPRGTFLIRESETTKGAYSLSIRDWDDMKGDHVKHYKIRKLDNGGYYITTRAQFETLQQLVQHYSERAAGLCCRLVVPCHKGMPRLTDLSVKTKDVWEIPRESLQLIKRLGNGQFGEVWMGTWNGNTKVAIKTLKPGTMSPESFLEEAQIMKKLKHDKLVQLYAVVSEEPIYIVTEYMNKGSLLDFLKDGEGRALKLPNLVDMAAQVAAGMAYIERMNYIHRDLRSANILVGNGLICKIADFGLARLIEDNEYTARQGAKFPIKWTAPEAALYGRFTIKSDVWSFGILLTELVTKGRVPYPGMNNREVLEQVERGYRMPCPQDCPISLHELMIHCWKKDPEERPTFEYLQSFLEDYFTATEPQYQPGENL
Chain of CDK3/Cyclin E (Homo sapiens) (P24864 whole entry, looked up): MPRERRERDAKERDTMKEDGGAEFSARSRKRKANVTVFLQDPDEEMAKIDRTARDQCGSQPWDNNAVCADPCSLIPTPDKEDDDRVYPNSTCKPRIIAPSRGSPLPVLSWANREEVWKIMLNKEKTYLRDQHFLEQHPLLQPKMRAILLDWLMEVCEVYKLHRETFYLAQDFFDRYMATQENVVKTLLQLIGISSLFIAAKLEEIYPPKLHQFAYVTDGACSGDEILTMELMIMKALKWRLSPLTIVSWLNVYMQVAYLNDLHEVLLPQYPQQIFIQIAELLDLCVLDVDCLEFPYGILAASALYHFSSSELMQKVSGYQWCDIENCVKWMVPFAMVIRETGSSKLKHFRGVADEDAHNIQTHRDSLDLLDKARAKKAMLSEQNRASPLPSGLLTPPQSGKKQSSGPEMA
Chain of CDK3/Cyclin E (Homo sapiens) (Q00526 whole entry, looked up): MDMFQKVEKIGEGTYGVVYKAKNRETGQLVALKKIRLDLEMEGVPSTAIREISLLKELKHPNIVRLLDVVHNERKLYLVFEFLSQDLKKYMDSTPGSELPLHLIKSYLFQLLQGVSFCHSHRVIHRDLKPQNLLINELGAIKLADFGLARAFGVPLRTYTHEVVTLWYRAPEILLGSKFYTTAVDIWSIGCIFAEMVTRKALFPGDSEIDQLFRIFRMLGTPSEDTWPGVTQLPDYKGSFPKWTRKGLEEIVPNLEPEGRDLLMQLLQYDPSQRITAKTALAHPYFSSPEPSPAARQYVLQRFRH
Chain of BDNF/NT-3 growth factors receptor (Q16620 whole entry): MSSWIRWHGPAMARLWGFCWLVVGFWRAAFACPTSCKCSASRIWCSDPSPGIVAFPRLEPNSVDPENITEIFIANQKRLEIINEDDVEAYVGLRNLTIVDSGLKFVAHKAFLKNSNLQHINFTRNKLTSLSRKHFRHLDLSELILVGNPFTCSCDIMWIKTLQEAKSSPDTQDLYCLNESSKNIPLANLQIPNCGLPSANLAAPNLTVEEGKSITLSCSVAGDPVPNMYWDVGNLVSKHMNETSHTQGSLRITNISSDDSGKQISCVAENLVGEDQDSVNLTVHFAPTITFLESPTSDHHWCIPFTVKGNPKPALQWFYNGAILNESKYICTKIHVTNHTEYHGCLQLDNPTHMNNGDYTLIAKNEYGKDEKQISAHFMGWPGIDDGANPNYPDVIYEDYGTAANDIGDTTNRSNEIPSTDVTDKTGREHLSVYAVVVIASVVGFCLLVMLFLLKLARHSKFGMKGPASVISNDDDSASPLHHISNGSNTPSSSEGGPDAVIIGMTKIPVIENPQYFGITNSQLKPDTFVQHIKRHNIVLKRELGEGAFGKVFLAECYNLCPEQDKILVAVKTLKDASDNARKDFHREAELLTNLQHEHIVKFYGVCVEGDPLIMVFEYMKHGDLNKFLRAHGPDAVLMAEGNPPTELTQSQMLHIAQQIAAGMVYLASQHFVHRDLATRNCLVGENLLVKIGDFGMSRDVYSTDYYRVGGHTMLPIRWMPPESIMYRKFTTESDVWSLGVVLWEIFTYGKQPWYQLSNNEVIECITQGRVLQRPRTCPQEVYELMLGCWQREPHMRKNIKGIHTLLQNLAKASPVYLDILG
Chain of Ribosomal protein S6 kinase beta-1 (Homo sapiens) (P23443 whole entry, looked up): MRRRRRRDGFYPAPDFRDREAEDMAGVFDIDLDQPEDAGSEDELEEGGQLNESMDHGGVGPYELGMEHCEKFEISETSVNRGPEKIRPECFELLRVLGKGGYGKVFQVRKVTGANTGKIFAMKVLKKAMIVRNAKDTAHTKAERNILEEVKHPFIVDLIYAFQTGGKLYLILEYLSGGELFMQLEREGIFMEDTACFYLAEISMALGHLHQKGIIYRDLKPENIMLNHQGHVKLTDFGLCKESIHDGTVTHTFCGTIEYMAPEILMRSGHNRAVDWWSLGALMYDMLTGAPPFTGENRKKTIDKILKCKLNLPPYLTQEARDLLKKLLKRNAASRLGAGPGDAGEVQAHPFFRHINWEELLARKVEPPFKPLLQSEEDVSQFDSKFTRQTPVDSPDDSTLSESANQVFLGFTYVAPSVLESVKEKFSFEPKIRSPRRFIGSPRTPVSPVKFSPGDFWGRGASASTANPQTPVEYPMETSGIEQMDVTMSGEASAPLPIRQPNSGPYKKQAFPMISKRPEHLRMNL
Chain of Megakaryocyte-associated tyrosine-protein kinase (Homo sapiens) (P42679 whole entry): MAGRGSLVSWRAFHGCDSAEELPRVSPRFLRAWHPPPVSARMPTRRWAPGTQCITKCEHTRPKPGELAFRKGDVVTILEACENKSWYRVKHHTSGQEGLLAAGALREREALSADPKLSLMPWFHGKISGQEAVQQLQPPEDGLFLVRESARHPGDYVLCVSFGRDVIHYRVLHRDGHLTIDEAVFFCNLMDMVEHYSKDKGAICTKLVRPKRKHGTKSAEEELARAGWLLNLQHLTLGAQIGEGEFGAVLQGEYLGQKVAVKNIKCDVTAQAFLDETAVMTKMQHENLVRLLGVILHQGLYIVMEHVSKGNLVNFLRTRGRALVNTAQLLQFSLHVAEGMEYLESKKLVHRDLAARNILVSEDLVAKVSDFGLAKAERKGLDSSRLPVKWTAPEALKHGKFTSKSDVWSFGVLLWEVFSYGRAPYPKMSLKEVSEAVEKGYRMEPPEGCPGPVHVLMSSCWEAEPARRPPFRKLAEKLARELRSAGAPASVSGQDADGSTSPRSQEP
Chain of Serine/threonine-protein kinase PAK 1 (Homo sapiens) (Q13153 whole entry): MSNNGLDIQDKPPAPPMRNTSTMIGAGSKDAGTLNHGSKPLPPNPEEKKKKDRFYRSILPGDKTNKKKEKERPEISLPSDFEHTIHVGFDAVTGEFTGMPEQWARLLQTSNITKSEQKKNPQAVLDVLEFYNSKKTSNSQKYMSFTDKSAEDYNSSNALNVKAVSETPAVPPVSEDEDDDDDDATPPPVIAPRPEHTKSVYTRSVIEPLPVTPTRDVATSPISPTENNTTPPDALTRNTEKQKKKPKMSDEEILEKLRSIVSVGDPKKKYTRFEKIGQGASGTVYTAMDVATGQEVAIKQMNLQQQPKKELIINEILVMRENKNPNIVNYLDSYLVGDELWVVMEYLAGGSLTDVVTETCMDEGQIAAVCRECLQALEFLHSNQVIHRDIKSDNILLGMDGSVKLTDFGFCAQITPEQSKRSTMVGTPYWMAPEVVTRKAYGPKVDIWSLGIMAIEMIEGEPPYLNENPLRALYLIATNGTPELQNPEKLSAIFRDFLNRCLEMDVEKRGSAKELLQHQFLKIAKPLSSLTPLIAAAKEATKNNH
Chain of Ribosomal protein S6 kinase alpha-5 (Homo sapiens) (O75582 whole entry, looked up): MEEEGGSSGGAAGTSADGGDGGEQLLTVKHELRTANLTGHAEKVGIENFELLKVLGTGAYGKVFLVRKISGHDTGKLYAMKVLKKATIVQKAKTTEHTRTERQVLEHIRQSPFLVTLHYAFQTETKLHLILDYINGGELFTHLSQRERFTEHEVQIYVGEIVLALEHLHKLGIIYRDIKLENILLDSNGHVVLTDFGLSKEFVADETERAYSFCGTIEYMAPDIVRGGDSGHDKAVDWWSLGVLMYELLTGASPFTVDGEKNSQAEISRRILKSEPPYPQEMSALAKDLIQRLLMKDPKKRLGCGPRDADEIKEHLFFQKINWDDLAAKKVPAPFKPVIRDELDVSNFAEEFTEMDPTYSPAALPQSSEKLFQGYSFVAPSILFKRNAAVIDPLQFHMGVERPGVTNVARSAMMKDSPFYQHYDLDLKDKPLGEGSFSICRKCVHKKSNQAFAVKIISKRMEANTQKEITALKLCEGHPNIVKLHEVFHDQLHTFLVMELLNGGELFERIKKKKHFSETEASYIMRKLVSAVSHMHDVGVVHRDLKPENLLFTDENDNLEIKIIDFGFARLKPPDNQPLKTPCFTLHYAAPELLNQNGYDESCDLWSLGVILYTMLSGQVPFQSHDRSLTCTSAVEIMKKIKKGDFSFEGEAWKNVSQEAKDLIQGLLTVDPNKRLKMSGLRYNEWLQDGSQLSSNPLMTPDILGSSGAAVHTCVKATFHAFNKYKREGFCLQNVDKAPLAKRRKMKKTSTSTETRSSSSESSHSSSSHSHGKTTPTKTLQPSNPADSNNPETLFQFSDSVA
Chain of Glycogen synthase kinase-3 alpha (Homo sapiens) (P49840 2-483 limits assumed): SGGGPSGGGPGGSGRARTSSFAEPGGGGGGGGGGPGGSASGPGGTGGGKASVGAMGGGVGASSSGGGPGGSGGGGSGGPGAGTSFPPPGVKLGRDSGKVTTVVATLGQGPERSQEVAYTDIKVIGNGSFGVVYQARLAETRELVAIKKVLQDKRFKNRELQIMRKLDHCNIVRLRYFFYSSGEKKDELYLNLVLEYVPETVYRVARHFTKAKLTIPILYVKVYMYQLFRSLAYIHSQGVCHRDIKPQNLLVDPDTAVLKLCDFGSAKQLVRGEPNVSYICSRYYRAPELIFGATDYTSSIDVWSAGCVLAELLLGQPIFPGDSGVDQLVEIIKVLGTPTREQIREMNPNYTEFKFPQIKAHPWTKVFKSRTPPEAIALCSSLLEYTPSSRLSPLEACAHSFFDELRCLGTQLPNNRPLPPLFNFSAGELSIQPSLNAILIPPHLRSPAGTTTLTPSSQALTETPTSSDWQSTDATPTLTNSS

## COc1cc(N2CCC(N3CCN(C)CC3)CC2)ccc1Nc1ncc(Cl)c(Nc2ccccc2P(C)(C)=O)n1 [BRIGATINIB]
[1]
  IC50: 171 nM
[2]
  inhibition: < 90%
[3]
  GI50: 10 nM
[4]
  IC50: 329 nM
[5]
  inhibition: < 90%
[6]
  IC50: 466 nM
[7]
  inhibition: < 90%
[8]
  inhibition: < 90%
[9]
  inhibition: < 90%
[10]
  inhibition: < 90%
[11]
  inhibition: < 90%
[12]
  inhibition: < 90%
[13]
  inhibition: < 90%
[14]
  GI50: 1340 nM
[15]
  IC90: 195 nM
[16]
  inhibition: < 90%
[17]
  inhibition: Active
[18]
  inhibition: < 90%
[19]
  inhibition: < 90%
[20]
  inhibition: < 90%
[21]
  inhibition: < 90%
[22]
  IC50: 198 nM
[23]
  inhibition: < 90%
[24]
  inhibition: < 90%
[25]
  IC50: > 1000 nM
[26]
  inhibition: < 90%
[27]
  inhibition: < 90%
[28]
  IC50: 1.3 nM
